# Molecular target: recombinant DYRK1A kinase (Homo sapiens, UniProt Q13627)
# Test: DYRK1A kinase assay (Ser/Thr 18 peptide Z-lyte FRET)
# Assay type: biochemical
# Conditions: DYRK1A kinase activity; 15 μM ATP, 4 μM Ser/Thr peptide 18, one hour at room temperature
# Outline: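 Recombinant DYRK1A at 0.25 μg/mL was incubated 1 h at room temperature with 15 μM ATP, 4 μM Ser/Thr 18 peptide and compound, in duplicate, 11-point series from 10 μM. Phosphorylation was read by Z-lyte FRET after 1 h protease development, as the coumarin/fluorescein emission ratio converted to % phosphorylation. IC50 by non-linear regression.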
row,SMILES,EC50
1,"O=C(Nc1cncc(F)c1)c1cnc2[nH]cc(-c3ccc4c(c3)C3(CCNCC3)CC4=O)c2c1 [Compound 764, N-(5-fluoropyridin-3-yl)-3-(3-oxo-2,3-dihydrospiro[indene-1,4′-piperidin]-6-yl)-1H-pyrrolo[2,3-b]pyridine-5-carboxamide]",22 nM
2,"CN1CCN(c2ccc(NC(=O)c3cnc4[nH]cc(-c5ccn6ncnc6c5)c4c3)cn2)CC1 [Compound 792, 3-([1,2,4]Triazolo[1,5-a]pyridin-7-yl)-N-(6-(4-methylpiperazin-1-yl)pyridin-3-yl)-1H-pyrrolo[2,3-b]pyridine-5-carboxamide]",10 nM
3,"CN1CCN(c2ccc(NC(=O)c3cnc4[nH]cc(-c5ccn6ncc(C(=O)N7CCCCC7)c6c5)c4c3)cn2)CC1 [Compound 802, N-(6-(4-Methylpiperazin-1-yl)pyridin-3-yl)-3-(3-(piperidine-1-carbonyl)pyrazolo[1,5-a]pyridin-5-yl)-1H-pyrrolo[2,3-b]pyridine-5-carboxamide]",7 nM
4,"Cc1ccccc1-c1cnc2[nH]cc(-c3cc(F)c4nc(C)n(C(C)C)c4c3)c2c1 [Compound 955, 4-Fluoro-1-isopropyl-2-methyl-6-(5-(o-tolyl)-1H-pyrrolo[2,3-b]pyridin-3-yl)-1H-benzo[d]imidazole]",20 nM
5,"Cc1nc2c(F)cc(-c3c[nH]c4ncc(-c5cc(F)c(F)c(N6CCNCC6)c5)cc34)cc2n1C(C)C [Compound 997, 6-(5-(3,4-Difluoro-5-(piperazin-1-yl)phenyl)-1H-pyrrolo[2,3-b]pyridin-3-yl)-4-fluoro-1-isopropyl-2-methyl-1H-benzo[d]imidazole]",6 nM
6,"CN1CCN(C(=O)c2cnn3ccc(-c4c[nH]c5ncc(-c6cnn(C)c6)cc45)cc23)CC1 [Compound 1055, (5-(5-(1-Methyl-1H-pyrazol-4-yl)-1H-pyrrolo[2,3-b]pyridin-3-yl)pyrazolo[1,5-a]pyridin-3-yl)(4-methylpiperazin-1-yl)methanone]",9 nM
7,"CN1CCC(Nc2ncnc3ccc(-c4c[nH]c5ncc(-c6cnn(C)c6)cc45)cc23)CC1 [Compound 1074, 6-(5-(1-Methyl-1H-pyrazol-4-yl)-1H-pyrrolo[2,3-b]pyridin-3-yl)-N-(1-methylpiperidin-4-yl)quinazolin-4-amine]",19 nM
8,"CN1CCn2ncc(-c3cnc4[nH]cc(-c5ccn6ncc(C(=O)Nc7cccnc7)c6c5)c4c3)c2C1 [Compound 1137, 5-(5-(5-Methyl-4,5,6,7-tetrahydropyrazolo[1,5-a]pyrazin-3-yl)-1H-pyrrolo[2,3-b]pyridin-3-yl)-N-(pyridin-3-yl)pyrazolo[1,5-a]pyridine-3-carboxamide]",4 nM
9,"CN1CCn2ncc(-c3cnc4[nH]cc(-c5ccc6ncncc6c5)c4c3)c2C1 [Compound 1154, 6-(5-(5-Methyl-4,5,6,7-tetrahydropyrazolo[1,5-a]pyrazin-3-yl)-1H-pyrrolo[2,3-b]pyridin-3-yl)quinazoline]",10 nM
10,"CN1CCC(NC(=O)c2cnn3ccc(-c4c[nH]c5ncc(-c6cccnc6)cc45)cc23)CC1 [Compound 1178, N-(1-Methylpiperidin-4-yl)-5-(5-(pyridin-3-yl)-1H-pyrrolo[2,3-b]pyridin-3-yl)pyrazolo[1,5-a]pyridine-3-carboxamide]",6 nM
11,"O=C1CC2(CCNCC2)Oc2cc(-c3c[nH]c4ncc(-c5cccnc5)cc34)ccc21 [Compound 1192, 7-(5-(Pyridin-3-yl)-1H-pyrrolo[2,3-b]pyridin-3-yl)spiro[chromane-2,4′-piperidin]-4-one]",10 nM
12,"Cc1ccnc(C)c1-c1cnc2[nH]cc(-c3cc(F)c4nc(C)n(C(C)C)c4c3)c2c1 [Compound 1291, 6-(5-(2,4-Dimethylpyridin-3-yl)-1H-pyrrolo[2,3-b]pyridin-3-yl)-4-fluoro-1-isopropyl-2-methyl-1H-benzo[d]imidazole]",7 nM
13,"CN1CCN(c2cc(-c3cnc4[nH]cc(-c5cc6ccncc6s5)c4c3)ccn2)CC1 [Compound 1370, 2-(5-(2-(4-Methylpiperazin-1-yl)pyridin-4-yl)-1H-pyrrolo[2,3-b]pyridin-3-yl)thieno[2,3-c]pyridine]",6 nM

# Other lines, results leading:
row,EC50,SMILES
1,3 nM,"Cc1nc2c(F)cc(-c3c[nH]c4ncc(C(=O)Nc5ccc(N6CCN(C)CC6)nc5)cc34)cc2n1C(C)C [Compound 787, 3-(4-Fluoro-1-isopropyl-2-methyl-1H-benzo[d]imidazol-6-yl)-N-(6-(4-methylpiperazin-1-yl)pyridin-3-yl)-1H-pyrrolo[2,3-b]pyridine-5-carboxamide]"
2,3 nM,"CN1CCN(c2ccc(NC(=O)c3cnc4[nH]cc(-c5ccc6c(c5)C(C)(C)CNC6=O)c4c3)cn2)CC1 [Compound 813, 3-(4,4-Dimethyl-1-oxo-1,2,3,4-tetrahydroisoquinolin-6-yl)-N-(6-(4-methylpiperazin-1-yl)pyridin-3-yl)-1H-pyrrolo[2,3-b]pyridine-5-carboxamide]"
3,2 nM,"Cc1nc2c(F)cc(-c3c[nH]c4ncc(NC(=O)c5ccnc(N6CCNCC6)c5)cc34)cc2n1C(C)C [Compound 829, N-(3-(4-Fluoro-1-isopropyl-2-methyl-1H-benzo[d]imidazol-6-yl)-1H-pyrrolo[2,3-b]pyridin-5-yl)-2-(piperazin-1-yl)isonicotinamide]"
4,2 nM,"Cc1nc2c(F)cc(-c3c[nH]c4ncc(Nc5ccnc(N6CCN(C)CC6)c5)cc34)cc2n1C(C)C [Compound 871, 3-(4-Fluoro-1-isopropyl-2-methyl-1H-benzo[d]imidazol-6-yl)-N-(2-(4-methylpiperazin-1-yl)pyridin-4-yl)-1H-pyrrolo[2,3-b]pyridin-5-amine]"
5,4 nM,"Cc1nc2c(F)cc(-c3c[nH]c4ncc(-c5ccccc5)cc34)cc2n1C(C)C [Compound 913, 4-Fluoro-1-isopropyl-2-methyl-6-(5-phenyl-1H-pyrrolo[2,3-b]pyridin-3-yl)-1H-benzo[d]imidazole]"
6,2 nM,"Cn1cc(-c2cnc3[nH]cc(-c4ccc5nccn5c4)c3c2)cn1 [Compound 1036, 6-(5-(1-Methyl-1H-pyrazol-4-yl)-1H-pyrrolo[2,3-b]pyridin-3-yl) imidazo[1,2-a]pyridine]"
7,2 nM,"Cc1nn(C)c(C)c1-c1cnc2[nH]cc(-c3cc(F)c4nc(C)n(C(C)C)c4c3)c2c1 [Compound 1081, 4-Fluoro-1-isopropyl-2-methyl-6-(5-(1,3,5-trimethyl-1H-pyrazol-4-yl)-1H-pyrrolo[2,3-b]pyridin-3-yl)-1H-benzo[d]imidazole]"
8,4 nM,"Cc1nc2c(F)cc(-c3c[nH]c4ncc(-c5cnn6c5CN(C)CC6)cc34)cc2n1C(C)C [Compound 1123, 3-(3-(4-Fluoro-1-isopropyl-2-methyl-1H-benzo[d]imidazol-6-yl)-1H-pyrrolo[2,3-b]pyridin-5-yl)-5-methyl-4,5,6,7-tetrahydropyrazolo[1,5-a]pyrazine]"
9,3 nM,"Cc1nc2c(F)cc(-c3c[nH]c4ncc(-c5cccnc5)cc34)cc2n1C1CCN(C)CC1 [Compound 1166, 4-Fluoro-2-methyl-1-(1-methylpiperidin-4-yl)-6-(5-(pyridin-3-yl)-1H-pyrrolo[2,3-b]pyridin-3-yl)-1H-benzo[d]imidazole]"
10,3 nM,"COc1ncnc2ccc(-c3c[nH]c4ncc(-c5cccnc5)cc34)cc12 [Compound 1197, 4-Methoxy-6-(5-(pyridin-3-yl)-1H-pyrrolo[2,3-b]pyridin-3-yl) quinazoline]"
11,3 nM,"CN1CCN(c2ncnc3ccc(-c4c[nH]c5ncc(-c6cccnc6)cc45)cc23)CC1 [Compound 1198, 4-(4-Methylpiperazin-1-yl)-6-(5-(pyridin-3-yl)-1H-pyrrolo[2,3-b]pyridin-3-yl)quinazoline]"
12,2 nM,"Cc1ncccc1-c1cnc2[nH]cc(-c3cc(F)c4nc(C)n(C(C)C)c4c3)c2c1 [Compound 1207, 4-Fluoro-1-isopropyl-2-methyl-6-(5-(2-methylpyridin-3-yl)-1H-pyrrolo[2,3-b]pyridin-3-yl)-1H-benzo[d]imidazole]"
13,2 nM,"Cc1ccncc1-c1cnc2[nH]cc(-c3cc(F)c4nc(C)n(C(C)C)c4c3)c2c1 [Compound 1249, 4-Fluoro-1-isopropyl-2-methyl-6-(5-(4-methylpyridin-3-yl)-1H-pyrrolo[2,3-b]pyridin-3-yl)-1H-benzo[d]imidazole]"
14,1 nM,"Cc1nc2c(F)cc(-c3c[nH]c4ncc(-c5ccc(N6CCN(C)CC6)nc5)cc34)cc2n1C(C)C [Compound 1333, 4-Fluoro-1-isopropyl-2-methyl-6-(5-(6-(4-methylpiperazin-1-yl)pyridin-3-yl)-1H-pyrrolo[2,3-b]pyridin-3-yl)-1H-benzo[d]imidazole]"
15,1 nM,"CN1CCN(c2ccc(-c3cnc4[nH]cc(-c5ccc6ncccc6c5)c4c3)cn2)CC1 [Compound 1362, 6-(5-(6-(4-Methylpiperazin-1-yl)pyridin-3-yl)-1H-pyrrolo[2,3-b]pyridin-3-yl)quinoline]"
16,1 nM,"CN1CCN(c2cc(-c3cnc4[nH]cc(-c5ccc6nccn6c5)c4c3)ccn2)CC1 [Compound 1372, 6-(5-(2-(4-Methylpiperazin-1-yl)pyridin-4-yl)-1H-pyrrolo[2,3-b]pyridin-3-yl)imidazo[1,2-a]pyridine]"
17,2 nM,"Cc1nc2c(F)cc(-c3c[nH]c4ncc(-c5ccnc(N6CCN(C)CC6)c5)cc34)cc2n1C(C)C [Compound 1375, 4-Fluoro-1-isopropyl-2-methyl-6-(5-(2-(4-methylpiperazin-1-yl)pyridin-4-yl)-1H-pyrrolo[2,3-b]pyridin-3-yl)-1H-benzo[d]imidazole]"
18,1 nM,"CN1CCN(c2cc(-c3cnc4[nH]cc(-c5ccn6ncc(-c7cnn(C)c7)c6c5)c4c3)ccn2)CC1 [Compound 1384, 3-(3-(1-methyl-1H-pyrazol-4-yl)pyrazolo[1,5-a]pyridin-5-yl)-5-(2-(4-methylpiperazin-1-yl)pyridin-4-yl)-1H-pyrrolo[2,3-b]pyridine]"

# — US20230192686A1, “1H-PYRROLO[2,3-B]PYRIDINES AND PREPARATION AND USES THEREOF” (BioSplice Therapeutics, Inc., priority 2021, published 2023)
